Source: patent publication US20030186315A1, “ADMINISTRATION OF AN AGENT WHICH DECREASES PROCESSING OF AMYLOID PRECURSOR PROTEIN” (priority 1999, published 2003)

What was measured:
NT2N cells = test: Indirect immunofluorescence microscopy of cell surface distribution of SFV-expressed APP695 in NT2N cells; format: cell-based, human; conditions: SFV-infected NT2N cells, 20 μg/ml BFA after infection
Description: Since BFA treatment results in retention of all newly synthesized proteins in the ER, additional experiments were conducted to confirm that the generation of Aβ42 in the ER was not due to retention of newly synthesized proteases not being delivered to their proper site of action. Accordingly, an ER-retention signal was placed in APP695 in which the third and fourth amino acids from the C-terminus were changed to lysine (APP695ΔKK) . This lysine motif is sufficient to retain heterologous transmembrane proteins in the ER and intermediate compartment. In these experiments, recombinant Semliki Forest virus (SFV) vectors to express APP695ΔKK. Previous studies have shown that despite high levels of SFV-mediated APP expression, SFV infected NT2N cells display a high degree of fidelity in processing APP (Wertkin et al. 1993 Proc. Natl. Acad. Sci. USA 90:9513-9517; Turner et al. 1996 J. Biol. Chem. 271:8966-8970). […] To determine if APP695ΔKK was in fact retained in the ER, indirect immunofluorescence microscopy was used to monitor both intracellular and cell surface distribution of SFV-expressed APP695 and APP695ΔKK. While intracellular levels of APP695 and APP695ΔKK appeared similar, only APP695 was expressed on the cell surface. […]

NT2N neurons [1] = test: ELISA distinguishing Aβ40 and Aβ42 in cell lysates and medium of BFA-treated NT2N neurons; format: cell-based, human
Description: Cell lysates and medium from the cells were then analyzed using an ELISA system which quantitatively distinguishes between Aβ40 and Aβ42 to ascertain whether alteration of Aβ levels by BFA was the result of altered levels of Aβ40, Aβ42 or both. Suzuki et al. 1994 Science 264:1336-1340. Results from the ELISA correlated with the immunoprecipitation data in that BFA abolished secretion of Aβ into the medium and reduced overall expression of intracellular Aβ by approximately 60%. However, it was the complete loss of […] that accounted for this decrease. […] Thus, γ-secretases appear to be active in the endoplasmic reticulum, but only to yield Aβ42. Further, it is believed that Aβ42 is preferentially generated in the ER while Aβ40, is generated in more distal components of the exocytic pathway.
NT2N neurons were pretreated with 20 Ag/ml of BFA for 1 hour before the addition of 0.5 mCi/ml of [^35S] methionine to the cultures for 16 hours in the absence or presence of BFA. The cell lysates and media were processed for immunoprecipitation as described in Example 3. For deglycosylation of APPG, the immunoprecipitates containing APPβ were washed twice in sodium phosphate buffer (20 mmol/l, pH 7.2) and boiled for 2 minutes in 10 μl of 1% SDS. The samples were then boiled for an additional 2 minutes after adding 90 μl of the sodium phosphate buffer with sodium azide (10 mmol/l), EDTA (50 mmol/l), and n-Octylglucoside (0.5% w/v). After this denaturation step, deglycosylation was initiated by the addition of 2 mU Neuraminidase (Arthrobacter; Boehringer Mannheim, Indianapolis, Ind.), 2.5 mU 0-Glycosidase (Boehringer Mannheim, Indianapolis, Ind.), and 0.4 U N-Glycosidase F (Boehringer Mannheim, Indianapolis, IN). The samples were then incubated at 37° C. for 18 hours and deglycosylated APPβ was run on 7.5% SDS-PAGE gels as described in Example 2.

[2] = system: human kidney 293 cells stably transfected with APPsw cDNA; conditions: non-neuronal 293 cells expressing APPsw; cited from earlier work
NT2N neurons [3] = test: Brefeldin A treatment of [35S]methionine-labeled NT2N neurons, immunoprecipitation of APP fragments from cell lysates and media; format: cell-based, human
Excerpt: The detection of APPβ in the cell lysate of NT2N neurons, together with the presence of Aβ40 and Aβ42 (Turner et al. 1996 J. Biol. Chem. 271:8966-8970), establish that an intracellular β-secretase pathway(s) exists in these cells. At present, no other cell line has been reported to produce detectable levels of intracellular APPβ from endogenous or over-expressed wild-type APP (Seubert et al. 1993 Nature 361:260-263; Haass et al. 1995a Nature Med. 1:1291-1296; Thinakaran et al. 1996b J. Biol. Chem. 271:9390-9397). […] In the absence of BFA, APPFL, APPβ, and Aβ were recovered from the cell lysates while APPα, APPβ, and Aβ were detected in the media of NT2N neurons.
Cultured NT2N neurons were starved in methionine-free DMEM HG (Life Technologies, Inc., Gaithersburg, Md.) for 30 minutes prior to incubation in fresh methionine-free DMEM HG containing 0.5 mCi/ml of [^35S]methionine (sp act. 1000 Ci/mmol; NEN-DuPont, Boston, Mass.). […] Quantitation of bands in the autoradiogram was performed using the ImageQuant software (Molecular Dynamics Inc. Sunnyvale, Calif.) in accordance with procedures described by Turner et al. 1996 J. Biol. Chem. 271:8966-8970. Radiolabeled proteins in SDS-PAGE gels and nitrocellulose replicas were also analyzed by standard autoradiographic methods. […]

## C[C@H]1CCC/C=C/[C@@H]2C[C@H](O)C[C@H]2[C@H](O)/C=C/C(=O)O1 [BFA, Brefeldin A]
NT2N cells
  surface expression of APP695: blocked
NT2N neurons [1]; cell lysate
  intracellular Aβ40: complete loss
  intracellular Aβ42: largely unaffected
  reduction of overall expression of intracellular Aβ: approximately 60%
NT2N neurons [1]; medium
  secretion of Aβ into the medium: abolished
[2]
  APPβsw and Aβ production: completely eliminates
NT2N neurons [3]; 20 μg/ml BFA, immunoprecipitation of media
  secretion of APPα, APPβ, and Aβ into the medium: completely abolished
NT2N neurons [3]; SDS-PAGE of immunoprecipitated APPβ
  electrophoretic mobility of APPβ from BFA-treated versus untreated cells: migrated more quickly
